Reference: article PMC5464773 (eLife, 2017)
Where two headings read alike, the source gives them in different places.

Legend:
Bcl-2 = biological target: T1, Bcl-2 (Homo sapiens, UniProt P10415); test: Competition fluorescence polarization (anisotropy) with fluoresceinated BIM; type: binding
T1 construct: c-myc
Method: (§1) Plates were mixed at 23°C for 3 hr. Plates were read again at 24 to check equilibration. Experiments were done in at least triplicate.

Bcl-xL = biological target: T2, Bcl-xL (Homo sapiens, UniProt Q07817); test: as above; type: binding
T2 construct: c-myc
T2 sequence (Q07817 whole entry): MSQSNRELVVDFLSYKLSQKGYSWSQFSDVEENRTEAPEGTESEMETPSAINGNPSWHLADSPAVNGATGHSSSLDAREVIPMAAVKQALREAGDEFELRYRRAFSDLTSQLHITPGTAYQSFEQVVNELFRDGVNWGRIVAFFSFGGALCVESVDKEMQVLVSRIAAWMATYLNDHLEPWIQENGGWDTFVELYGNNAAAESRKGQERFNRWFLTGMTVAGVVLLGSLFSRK
Method: as §1

Bcl-w = biological target: T3, Bcl-w (Homo sapiens, UniProt Q92843); test: as above; type: binding
T3 construct: c-myc
T3 sequence (Q92843 1-193): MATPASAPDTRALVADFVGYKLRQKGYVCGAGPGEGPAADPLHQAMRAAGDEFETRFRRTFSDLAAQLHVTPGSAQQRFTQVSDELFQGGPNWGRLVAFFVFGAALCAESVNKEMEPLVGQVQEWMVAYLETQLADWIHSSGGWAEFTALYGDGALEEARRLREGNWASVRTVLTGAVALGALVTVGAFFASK
Method: as §1

Mcl-1 = biological target: T4, Mcl-1 (Homo sapiens, UniProt Q07820); test: as above; type: binding
T4 construct: c-myc
T4 sequence (Q07820 whole entry): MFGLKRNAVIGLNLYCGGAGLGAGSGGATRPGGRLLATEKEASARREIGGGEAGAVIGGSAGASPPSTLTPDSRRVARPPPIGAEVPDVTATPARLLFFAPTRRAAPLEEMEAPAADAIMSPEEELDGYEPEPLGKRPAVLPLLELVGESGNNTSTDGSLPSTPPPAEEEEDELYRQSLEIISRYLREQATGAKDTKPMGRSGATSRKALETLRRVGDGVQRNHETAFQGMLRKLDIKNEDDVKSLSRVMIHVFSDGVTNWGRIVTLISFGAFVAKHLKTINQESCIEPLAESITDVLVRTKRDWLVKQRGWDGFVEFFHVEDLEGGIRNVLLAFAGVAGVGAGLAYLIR
Method: C-myc-tagged receptors were used for all Bcl-2 homologs, as previously described ([DeBartolo et al., 2012]; [Dutta et al., 2010]). Plates were mixed at 23°C for 3 hr. Plates were read again at 24 to check equilibration. Experiments were done in at least triplicate. Data were fit, as described for competition fluorescence anisotropy experiments in [Foight et al. (2014]), to a complete competitive binding model (equation 17 in [Roehrl et al. [2004]]) using a Python script.

Bfl-1 = biological target: T5, Bfl-1 (Homo sapiens, UniProt Q16548); test: as above; type: binding; conditions: for Ki (M) Bfl-1 / Ki: competition FP source data; for Ki: mean of three replicates
T5 construct: c-myc
T5 sequence (Q16548 1-175): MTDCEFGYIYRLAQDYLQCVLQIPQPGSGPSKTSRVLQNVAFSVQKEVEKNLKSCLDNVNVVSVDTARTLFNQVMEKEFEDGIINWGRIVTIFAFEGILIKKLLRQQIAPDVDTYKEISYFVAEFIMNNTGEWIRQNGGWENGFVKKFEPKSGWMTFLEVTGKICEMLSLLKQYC
Method: as §1

[1] = tested on: BCR-ABL-expressing B-lineage acute lymphoblastic leukemia cells dependent on Mcl-1; conditions: iBH3 fits Mcl-1, sigmoidal dose-response (variable slope)
Method: (§2) As an additional test for on-pathway activity, we measured cytochrome c release in the same engineered cell lines in response to peptide treatment, using iBH3 profiling ([Ryan et al., 2016]).
(§3) The creation and characterization of the BCR-ABL-expressing B-lineage acute lymphoblastic leukemia suspension cell lines with engineered dependencies on human versions of anti-apoptotic genes is detailed in [Koss et al. (2016)]). Cells were grown in RPMI (Life Technologies, Carlsbad, CA) with 10% fetal bovine serum, 2 mM L-glutamine, 10 mL/L 100x Pen/Strep (Life Technologies # 15140122), 25 mM HEPES and 10 mL/L 100x NEAA (Life Technologies, 11140050). The adherent cell lines PC-3 (RRID: CVCL_0035) and SF295 (RRID: CVCL_1690) are from the NCI60 panel ([Lorenzi et al., 2009]) and were grown in RPMI (Life Technologies) with 10% fetal bovine serum, 2 mM L-glutamine and 10 mL/L 100x Pen/Strep (Life Technologies # 15140122 ). Cell line identities were confirmed by STR profiling. The Lookout Mycoplasma PCR detection kit (Sigma) was used to detect mycoplasma infection.
(§4) Cells were suspended in MEB buffer (150 mM mannitol, 50 mM KCl, 10 mM HEPES, 5 mM succinic acid, 20 μM EGTA, 20 μM EDTA, 0.1% BSA, final pH 7.4) at 0.5*10^6 cells/mL (adherent lines) or 2 *10^6 cells/mL (suspension lines). Cell suspension was added to a 384 non-binding well plate (10 μL/well) containing peptides at 2X final concentration in MEB with 20 μg/mL digitonin. Plates were incubated at 25°C for 1 hr. To terminate exposure, 10 μL of 4% formaldehyde in PBS was added to each well, plates were incubated for 10 min before addition of 10 μL N2 buffer (1.7M Tris, 1.25M glycine, pH 9.1) for 5 min. 10 μL of staining buffer (2% Tween20, 10% BSA, PBS) containing 10 μg/mL Hoechst 33342 and 1.25 μg/mL anti-cytochrome c Alexa647 conjugate (BioLegend clone 6H2.B4) was added to each well before sealing the plate and shaking overnight. The median fluorescence of the cytochrome c channel of Hoechst positive singlets was recorded by an IntelliCyt iQue Screener Plus. Cytochrome c release was determined by normalizing the median fluorescence intensity (MFI) data to positive control wells (Alamethicin) and negative control wells (DMSO) as follows: Cytochromecrelease=1−(MFIsample−MFIAlamethicin)/(MFIDMSO−MFIAlamethicin)

SF295 cells = type: cell-based
Method: (§5) To test the possibility that FS1, FS2 or FS3 may directly activate BAK and BAX, we measured cytochrome c release in two ‘unprimed’ cell lines (PC-3 and SF295). Unprimed cells require BAK/BAX activators to release cytochrome c ([Certo et al., 2006]).
(§6) Cell line identities were confirmed by STR profiling.
(§7) Plates were incubated at 25°C for 1 hr.

PC-3 cells = test: iBH3, cytochrome c release in unprimed cells (BAK/BAX activator function); type: cell-based
Method: as §5, §6, §7

[2] = tested on: BCR-ABL-expressing B-lineage acute lymphoblastic leukemia cells dependent on Bcl-2; test: iBH3 profiling, cytochrome c release; type: cell-based; conditions: iBH3 fits Bcl-2, sigmoidal dose-response (variable slope)
Method: as §2, §3, §4

[3] = competition FP, 50 nM c-myc-tagged receptor + 25 nM fluoresceinated BIM, Tris pH 7.8, 23°C, 3 hr, mean ± SD of three replicates, read-out: Ki (nM) Bcl-2
[4] = competition FP source data, replicate 1
[5] = competition FP source data, replicate 2
[6] = competition FP source data, replicate 3
[7] = competition FP, 50 nM c-myc-tagged receptor + 25 nM fluoresceinated BIM, Tris pH 7.8, 23°C, 3 hr, mean ± SD of three replicates, read-out: Ki (nM) Bcl-xL
[8] = competition FP, 50 nM c-myc-tagged receptor + 25 nM fluoresceinated BIM, Tris pH 7.8, 23°C, 3 hr, mean ± SD of three replicates, read-out: Ki (nM) Bcl-w
[9] = competition FP source data, mean of three replicates, values above 5 μM are reported as > 5 μM in the figures, read-out: mean Ki (M) Mcl-1
[10] = competition FP, 50 nM c-myc-tagged receptor + 25 nM fluoresceinated BIM, Tris pH 7.8, 23°C, 3 hr, mean ± SD of three replicates, read-out: Ki (nM) Mcl-1
[11] = competition FP source data, mean of three replicates, values above 5 μM are reported as > 5 μM in the figures, read-out: mean Ki (M) Bcl-w
[12] = SF295 cells, iBH3 fit, sigmoidal dose-response (variable slope)
[13] = iBH3 fit PC-3, sigmoidal dose-response (variable slope), fit of 4 replicates

T1 sequence (P10415 whole entry): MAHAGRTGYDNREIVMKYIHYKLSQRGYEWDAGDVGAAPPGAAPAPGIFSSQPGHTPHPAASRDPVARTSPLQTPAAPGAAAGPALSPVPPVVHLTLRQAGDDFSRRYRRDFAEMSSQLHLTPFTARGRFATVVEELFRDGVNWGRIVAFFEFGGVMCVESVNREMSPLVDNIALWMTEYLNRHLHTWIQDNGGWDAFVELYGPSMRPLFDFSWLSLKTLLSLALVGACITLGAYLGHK

| Compound | Ki (Bcl-2; [3]) [nM] | Ki (M) Bcl-xL (Bcl-xL; [4]) [M] | Ki (M) Bcl-xL (Bcl-xL; [5]) [M] | Ki (M) Bcl-xL (Bcl-xL; [6]) [M] | Ki (Bcl-xL; [7]) [M] | Ki (Bcl-w; [8]) [nM] | Ki (Mcl-1; [9]) [M] | Ki (M) Mcl-1 (Mcl-1; [4]) [M] | Ki (M) Mcl-1 (Mcl-1; [5]) [M] | Ki (M) Mcl-1 (Mcl-1; [6]) [M] | Ki (Mcl-1; [10]) [M] | Ki (M) Bfl-1 (Bfl-1; replicate 1) [M] | Ki (M) Bfl-1 (Bfl-1; replicate 2) [M] | Ki (M) Bfl-1 (Bfl-1; replicate 3) [M] | Ki (Bfl-1) [nM] | Ki (M) Bcl-2 (Bcl-2; [4]) [M] | Ki (M) Bcl-2 (Bcl-2; [5]) [M] | Ki (M) Bcl-2 (Bcl-2; [6]) [M] | Ki (Bcl-w; [11]) [nM] | Ki (M) Bcl-w (Bcl-w; [4]) [M] | also measured |
| --- | --- | --- | --- | --- | --- | --- | --- | --- | --- | --- | --- | --- | --- | --- | --- | --- | --- | --- | --- | --- | --- |
| Ac-QWAREIGAGLRRAADDVNAQVER-NH2 [Puma_N/FS2_C] | 2000 ± 160 | 3.68e-09 | 1.31e-09 | 2.24e-09 | 1.1e-06 ± 3e-07 | > 5000 | 3.36e-10 | 6.72e-10 | 1.94e-10 | 1.4e-10 | > 5e-06 | – | – | – | – | – | – | – | – | – | Ki (Bcl-xL; competition FP source data, mean of three replicates, values above 5 μM are reported as > 5 μM in the figures, read-out: mean Ki (M) Bcl-xL): 2.41e-09 M |
| Ac-RPVIWIAQGLRRAGDEVNAYVAR-NH2 [BIM-FS2] | – | – | – | – | – | – | – | – | – | – | – | 7.75e-07 | 7.87e-07 | 5.89e-07 | – | – | – | – | – | – | fold weaker binding to Bfl-1 than native BIM (Bfl-1; ratio of Ki values from competition FP): > 1000 fold |
| Ac-QWVREIAAQLRRMADDLNAQYER-NH2 [FS2_N/Puma_C] | 14 ± 2 | – | – | – | 2.4e-09 ± 1.2e-09 | 1.2 ± 0.3 | 8.46e-05 | 5.7e-06 | 6.84e-05 | 0.00018 | 3e-10 ± 3e-10 | 4.65e-07 | 6.79e-07 | 6.37e-07 | 594 | 1.99e-06 | 1.85e-06 | 2.17e-06 | 8830 | 9.94e-06 | Ki (Bcl-2; competition FP source data, mean of three replicates, values above 5 μM are reported as > 5 μM in the figures, read-out: mean Ki (M) Bcl-2): 2000 nM; Ki (M) Bcl-w (Bcl-w; [5]): 6.82e-06 M; Ki (M) Bcl-w (Bcl-w; [6]): 9.74e-06 M |
| CC[C@H](C)[C@H](NC(=O)[C@H](CCC(=O)O)NC(=O)[C@H](CCCNC(=N)N)NC(=O)[C@H](C)NC(=O)[C@H](Cc1c[nH]c2ccccc12)NC(=O)[C@H](CCC(N)=O)NC(C)=O)C(=O)NCC(=O)N[C@@H](C)C(=O)N[C@@H](CCC(N)=O)C(=O)N[C@@H](CC(C)C)C(=O)N[C@@H](CCCNC(=N)N)C(=O)N[C@@H](CCCNC(=N)N)C(=O)N[C@@H](CCSC)C(=O)N[C@@H](C)C(=O)N[C@@H](CC(=O)O)C(=O)N[C@@H](CC(=O)O)C(=O)N[C@@H](CC(C)C)C(=O)N[C@@H](CC(N)=O)C(=O)N[C@@H](C)C(=O)N[C@@H](CCC(N)=O)C(=O)N[C@@H](Cc1ccc(O)cc1)C(=O)N[C@@H](CCC(=O)O)C(=O)N[C@@H](CCCNC(=N)N)C(N)=O [PUMA, reference compound] | – | 2.23e-09 | 4.17e-09 | 4.19e-10 | – | – | – | 2.28e-09 | 3.28e-09 | 1.63e-09 | – | 4.9e-09 | 5.4e-09 | 4.23e-09 | 4.84 | 4.27e-09 | 9.91e-09 | 2.68e-09 | 2.97 | 4.44e-09 | Ki (M) Bcl-w (Bcl-w; [5]): 4.04e-09 M; Ki (M) Bcl-w (Bcl-w; [6]): 4.31e-10 M; HillSlope (best-fit value) [1]: ~ 1.358; Bottom (best-fit value) ([1]; fit of 3 replicates): ~ -276.9; Top (best-fit value) ([1]; fit of 3 replicates): 0.9859; peptide concentration leading to cytochrome c release in unprimed cells (SF295 cells; SF295, unprimed, iBH3, 25°C, 1 hr): observed cytochrome c release; Bottom (best-fit value) (SF295 cells; [12]): -0.02393; HillSlope (best-fit value) (SF295 cells; [12]): 0.4226; Top (best-fit value) (SF295 cells; [12]): 0.958; LogEC50 (best-fit value) (SF295 cells; SF295 cells, iBH3 fit, sigmoidal dose-response (variable slope), log of peptide concentration in M): -5.945; peptide concentration leading to cytochrome c release in unprimed cells (PC-3 cells; PC-3, unprimed, iBH3, 25°C, 1 hr): observed cytochrome c release; LogEC50 (best-fit value) (PC-3 cells; iBH3 fit PC-3, log of EC50, x axis Log [Peptide M], sigmoidal dose-response (variable slope)): -6.309; HillSlope (best-fit value) (PC-3 cells; iBH3 fit PC-3, sigmoidal dose-response (variable slope)): 1.567; Bottom (best-fit value) (PC-3 cells; [13]): 0.1477; Top (best-fit value) (PC-3 cells; [13]): 0.7911; LogEC50 (best-fit value) ([2]; log of EC50, x axis Log [Peptide M]): -7.436; HillSlope (best-fit value) [2]: 1.78; Bottom (best-fit value) ([2]; fit of 3 replicates): 0.2923; Top (best-fit value) ([2]; fit of 3 replicates): 1.01 |
